Assays:
Aβ42 = molecular target: T1, Aβ42 (Homo sapiens, UniProt P05067); experiment: ThT binding assay, inhibition of Aβ42 fibrillar assembly; assay type: biochemical
T1 construct: commercially available β-amyloid peptide (1-42), human; purchased marck (so in the source) PP69-.025 mg
Protocol: Monomeric form of Aβ42 peptide was prepared by dissolving 0.25 mg of commercially available β-amyloid peptide (1-42), human (cat: PP69-.025 mg), marck peptide in 250 µL of hexafluoro-2-propanol (HFIP) solvent to obtain a Aβ42 solution. This solution was incubated at room temperature for 1 hour, further to which the HFIP solvent was removed by nitrogen gas flow to obtain the monomeric Aβ42 peptide. To prepare a fibrillar sample of Aβ42 peptide, 0.025 mg of Aβ42 peptide was dissolved in […] of PBS buffer (pH = 7.4; contains 2% of DMSO or 100 mM NaOH) to obtain a monomeric Aβ42 solution and the peptide concentration in this solution was calculated through UV-Visible absorbance studies (ε = 1450 cm^-1 M^-1). The Aβ42 monomeric solution was incubated for 5 days in PBS buffer (pH = 7.4) to allow for the full phase formation of Aβ42 fibrils. The presence of Aβ42 fibrils was further confirmed by ThT assay.
Initially, the ability of the prepared NMI compounds, TGR63-68 to inhibit Aβ42 fibrillar assembly at 1:1 molar ratio with Aβ42 fibrils was evaluated using thioflavin (ThT) binding assay. 10 µM of Aβ42 fibrils in the absence (Ctrl) and the presence of 10 µM of inhibitors individually were incubated for 72 h. A normalized data for fluorescence intensity (NFI) of ThT at 482 nm (λex = 442 nm) was measured as represented in FIG. 1(a).
The ability of NMI compounds (TGR63, TGR64 and TGR65) to prevent Aβ42 fibrillar assembly (inhibition) and to break down the preformed fibrils (dissolution) was evaluated using thioflavin (ThT) binding assay. Aβ42 fibrils at a concentration of 10 µM and its aggregates, were used to study the effect of NMI compounds (TGR63, TGR64 and TGR65) at varying concentrations on both inhibition and dissolution assays. For the inhibition assay, all the NMI compounds (TGR63, TGR64 and TGR65) were added independently to Aβ peptide (10 µM) at 0 h of the experiment, whereas for the aggregates dissolution assay they were added to Aβ42 fibrillar aggregates grown for 2 days. Upon incubating for a predetermined period, Aβ42 inhibitor samples were analyzed using ThT by measuring the fluorescence change at 485 nm as presented in FIG. 1(b) and FIG. 1(c), wherein the error bars represent the standard deviation (SD) of the fluorescence measurement. Fluorescence values were normalized to maximal fluorescence intensity at 485 nm compared to that of the control (Aβ42 with no inhibitor). Experiments were performed at various stoichiometric ratios (Aβ42/inhibitor) of 1:1, 1:2, and 1:5 with a fixed concentration of Aβ42 at 10 µM. Each experiment was repeated three times (n = 3). […] TGR 63 recorded 80% dissolution efficiency while TGR 64 and TGR 65 recorded 75% and 78% dissolution efficiency respectively, for the stoichiometric ratio of 1:5.

APP/PS1 mice = experiment: Open field (OF) test; assay type: in vivo; conditions: AD TGR63 cohort
Protocol: In OF test, all the experimental mice were individually allowed to explore a novel platform (45 X 45 cm) and their locomotion activity was monitored for 5 min (Sony HDRCX405 camera) and analyzed using the smart 3 software (Panlab; FIG. 16A). […] The anxiety behaviors of TGR63 treated mice were assessed by the time spent and the entries in the center zone (20 X 20 cm) of OF arena. […] Next, the effect of TGR63 on memory processing, viz., acquisition, consolidation and retrieval were evaluated through NOI test, which has been widely used as a tool to study the neurobiology of memory using the natural tendency of rodents to explore novel objects more than the familiar objects. All the experimental mice were familiarized with two identical objects (familiar objects) in a known habituated arena and allowed to explore a novel and familiar object after 24 and 48 h of familiarization (FIG. 16E). The exploration time with each object was measured using a stopwatch, and the discrimination index (DI) was determined using the formula, (time exploring the novel object - time exploring the familiar) / (time exploring novel + familiar) * 100. […] Similarly, the calculated DI after 48 h was lowest (-7) for AD vehicle cohort compared to both vehicle and TGR63 treated WT cohorts (+43 and +45, respectively) (FIG. 16G). […] The blocking of essential synaptic receptors (NMDA and AMPA) by Aβ aggregation species leading to synaptic dysfunction followed by impairment in hippocampal LTP formation. […] TGR63 treatment ameliorates the memory impairment in APP/PS 1 mice by reducing the toxic amyloid burden from the brain under progressive AD conditions.

SHSY5Y cells = experiment: Membrane toxicity modulation, immunocytochemistry in SHSY5Y cells; assay type: cell-based; conditions: Aβ42 pre-incubated 24 h with TGR63, 2 h treatment
Protocol: Inspiring from the above-mentioned studies, membrane toxicity modulation ability of TGR63 through immunocytochemistry in SHSY5Y cells was also investigated. The cells were cultured in 35 mm confocal dishes and treated individually with Aβ42 samples, pre-incubated for 24 h in the presence and absence of TGR63 for 2 h under cell growing conditions. Then the experimental cells were washed and fixed using 4% paraformaldehyde (PFA) to probe the Aβ42 fibrils with OC (1:250) antibody, followed by red fluorescent labeled (λex= 633 nm and λem= 650 nm) secondary antibody (Alexa 633-A21052, Thermo). Finally, unbound antibody was washed and 4′,6-diamidino-2-phenylindole (DAPI) was used to stain the nucleus before the confocal imaging. For DAPI staining, experimental cells were incubated with DAPI (500 nM) solution (PBS) for 10 min at room temperature. Then, the cells were washed with PBS three times and imaged under confocal fluorescence microscope (λex= 358 nm, […]). FIG. 5 depicts the images obtained by nuclear staining of SHSY5Y cells with DAPI(blue) and Aβ42 fibrils staining with OC antibody and red fluorescent labelled secondary antibody.

T1 sequence (P05067 672-713 limits assumed): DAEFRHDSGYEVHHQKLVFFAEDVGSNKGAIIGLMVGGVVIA

`CN(C)c1ccc(C#Cc2ccc3c4c(cccc24)C(=O)N(CC[N+](C)(C)C)C3=O)cc1` [TGR63, 2-(6-((4-(dimethylamino)phenyl)ethynyl)-1,3-dioxo-1H-benzo[de]isoquinolin-2(3H)-yl)-N,N,N-trimethylethan-1-aminium] was tested, and the “inhibitory effect on Aβ42 aggregation (ThT NFI at 482 nm)” value (Aβ42; 1:1 molar ratio, 10 µM Aβ42, 10 µM inhibitor, 72 h) was ~ 45%, the “decrease in the formation of Aβ aggregates” value (Aβ42; Aβ42/inhibitor 1:1, Aβ42 10 µM, third day of incubation) was ~ 50% and the “Aβ aggregation decreased to” value (Aβ42; Aβ42/inhibitor 1:2, Aβ42 10 µM, third day of incubation) was 75%. The “Aβ aggregation decreased to” value (Aβ42; Aβ42/inhibitor 1:5, Aβ42 10 µM, third day of incubation) was 90%, the “total distance traveled (average)” value (APP/PS1 mice; 5 min, AD vehicle 2698.25 cm, WT vehicle 1533.88 cm) was 1515.33 cm and the “distance traveled in the center zone (average)” value (APP/PS1 mice; AD vehicle 243.0 cm) was 98.14 cm. For the same compound, the “number of entries into the center zone” value (APP/PS1 mice; AD vehicle ~20) was ~ 9 entries and the “OC red fluorescence signal of Aβ42 fibrils on plasma membrane” value (SHSY5Y cells) was “lower red fluorescence signal on the plasma membrane”.

Source: patent publication US20230331679A1, “NAPHTHALENE MONOIMIDE COMPOUNDS AND METHODS THEREOF” (JAWAHARLAL NEHRU CENTRE FOR ADVANCED SCIENTIFIC RESEARCH, priority 2020, published 2023)
